Data from US20120322751A1 (priority 2010, published 2012).
Values after ≈ are worked out from the molar mass of the structure shown.

Assays:
[1] = tested on: DNCB induced delayed type hypersensitivity reactions; assay: Delayed type hypersensitivity (DTH) in DNCB sensitised nude guinea pigs; format: in vivo, nude guinea pig; settings: topical twice daily during 7 days; by day 7; preliminary data
Method: The nude guinea pig is used as test animal because of different animal skins, nude guinea pig skin is claimed to be the one closest resembling human skin. […] In DNCB sensitised guinea pigs delayed type hypersensitivity reactions were induced with patches soaked with 0.25% (w/v) DNCB in ethanol/propylene glycol kept on the animals back for 24 hours. The test sites were treated twice daily during 7 days with: Dovonex (commercially available ointment with calcipotriene; 1% (w/w) BAC-3 in US petrolatum. Locobasis (commercially available ointment, identical as carrier for steroids; 1% (w/w) non purified BAC-3 (86%) in US petrolatum; US petrolatum; Preferid (commercially available steroid).

[2] = target: T1, Guinea pig lung LTC4 synthase (Cavia porcellus, UniProt A6XA80); assay: Leukotriene C4 synthase inhibition (EIA); format: biochemical; settings: highest concentration (1,000 μM/ml); solvent DMSO
T1 construct: Guinea pig lung LTC4 synthase was used; from tissue; host or cells: guinea pig lung
T1 sequence (A6XA80 1-150): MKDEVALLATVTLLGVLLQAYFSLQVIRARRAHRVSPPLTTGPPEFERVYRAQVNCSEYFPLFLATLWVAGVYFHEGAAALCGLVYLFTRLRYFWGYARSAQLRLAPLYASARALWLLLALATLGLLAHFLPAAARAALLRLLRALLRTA
Method: Leukotriene C4 (LTC4) synthase is crucial in the formation of LTC4 from LTA4. Taken together with other assays for enzymes involved in the lipoxygenase pathway (e.g. 5-lipoxygenase, LTA4 hydrolase), a locus of action can be established, mechanism of agents' activities which inhibit the formation of the leukotrienes.
Guinea pig lung LTC4 synthase was used. Test compound and/or vehicle was preincubated with 180 μg/ml enzyme dissolved in phosphate buffer pH 7.8 for 15 minutes at 37° C. The reaction was initiated by addition of 2.5 μg/ml LTA4 methyl ester for another 30 minute incubation period and terminated by further addition of ice-cold methanol. Determination of the amount of LTC4 formed was read spectrophotometrically by enzyme immunoassay kit (EIA). Compounds was tested at the concentrations of 1,000; 100; 10; and 1 μM/ml. The used solvent was DMSO.

[3] = tested on: TPA/pyr induced acute ear inflammation; assay: TPA/pyr induced acute ear inflammation; format: in vivo, Swiss-Webster mice; settings: topical 0.1% solution
Excerpt: The inflammatory responses occur in three distinct phases, each apparently mediated by different mechanisms: an acute one characterized by local vasodilatation and increased capillary permeability, a subacute phase characterized by infiltration of leukocyte and phagocytic cells and a chronic proliferative phase, in which tissue degeneration and fibrosis occur. Acute inflammation generated by TPA (12-o-tetradecanoylforbolacetat/pyridine) induces an acute inflammatory reaction consisting of erythema, edema and polymorphonuclear leukocyte (PMN) infiltration The mechanism of anti-inflammatory mode of action of di-rhamnolipid BAC-3 is unknown. So far, it has been shown that Pseudomonas di-rhamnolipids stimulate, both chemotaxis and chemokinesis of leukocytes). In vitro studies examining the effects of pulmonary surfactant containing hydrophobic apopoproteins on human neutrophils have the important role of the protein component of the surfactant in enhancing the leukocyte chemotaxis, opsonizing bacteria, enhancing macrophage function, and stimulating antibody production. […] Correspondingly, it has been recognized that glycolipids (biosurfactants) through their virtue of hidrophilic head bind to proteins, i.e. receptors on cell membranes. […] It has been proposed that rhamnolipid increased the early recruitment of inflammatory cells to the site of inflammation without triggering a persistent, abnormal accumulation of neutrophils.
In the experiment it was proven that rhamnolipd (BAC-3) at concentration (1 mg/ml^−1, 0.1% w/v) was effective as a topical therapeutic anti-inflammatory agent in the TPA/pyr model of acute dermal ear inflammation in female Swiss-Webster mice over a time-course of 24 hours. The time of maximal reduction of inflammation was dependent on the time of treatment, with respect to induction.
Post treatment with BAC-3 two hour after inflammation reversed established inflammation with maximal effect after 11 hours. (32% lower inflammation in comparison with control). […]

[4] = Preservation of structure during 10 years after production; format: physicochemical; settings: under nitrogen N2 in glass bottles at room temperature
Excerpt: On the figure has been shown the purity of the rhamnolipid BAC-3 (FIG. 10) and mass spectrum (FIG. 11) ten years after production. The production of the rhamnolipid BAC-3 purity>98.5 is very expensive procedure. Therefore one of the most important task of rhamnolipid BAC-3 production is achieving clinically acceptable purity without using HPLC-MS equipment, except for control purposes of the purity and mass spectrum.

[5] = tested on: Normal human fibroblasts derived from foreskin; assay: Collagen synthesis and total protein synthesis by human fibroblasts in vitro; format: cell-based
Method: a) Neonatal human fibroblast culture was established from a sample of neonatal human foreskin obtained by circumcision. After removal of subcutaneous tissue by dissection, the sample was desegregated by trypsinization with 0.25% trypsin and 1 mM EDTA solution (Gibco). Released cells were propagated in 100 mm plastic tissue culture dishes (Corning) in incubator at 37° C. saturated with 5% CO2. The medium, changed twice weekly, was a mixture of 0.2 mg/ml calcium, 4500 mg/l glucose in Dulbecco's modified Eagle's medium (DMEM, Gibco) supplemented with 10% fetal bovine serum FBS (Gemini-Bio-Products), 0.292 mg/ml L-glutamine (Gibco) and antibiotic-antimycotic solution containing 100 U penicillin-G/ml, 100 mcg/ml streptomycin and 0.25 mcg/ml fungizione in normal saline (Gemini-Bio-Products). Primary culture cells were trypsinized. To achieve enough cells of the same passage, the cells were replanted two times during two weeks and transplanted in bigger dishes before incubation started. At density 5×10^5 NHK 98-009 of fibroblasts of passage 4 was transplanted in Petri dishes in DMEM medium. When cells achieved ca 50% of confluence they were treated with solutions of BAC-3 with 0; 1; 10; 100; 250; and 500 μg/ml and 50 μg/ml of ascorbic acid (Sigma). All solutions were filtrated through 0.2 μm filters (Fisher). The media with or without BAC-3 were changed once after two days. 100 μg of ascorbic acid were added each day in media until achieving final concentration of 50 μg/ml of ascorbic acid in each of Petri dishes. […]
Normal human fibroblasts derived from foreskin were cultured in T-25 flasks and were treated with BAC-3 at concentrations of 1 μg/ml, 10 μg/ml, and 100 μg/ml in the way previously described. […] One half of the sonicate was hydrolyzed in 6N HCl; hydroxyproline was measured in the hydrolisate to determine collagen synthesis. […] Total collagen per flask was determined multiplying the hydroxiproline value by 7.8. […]

[6] = tested on: human mononuclear cells (MNC); assay: cells; format: cell-based

SMILES	state of DTH test area [1]	inhibition at 1000 µM [2]	decrease of inflammation vs control ear, pre-treatment ([3]; single dose 1 hour before TPA/pyr)	lower inflammation vs control, post treatment ([3]; two hours after induction, maximal effect after 11 hours)	inhibition of inflammation vs control ear, concurrent treatment ([3]; with TPA/pyr induction, at 6 hours)	structure after storage [4]	percent of protein synthesis dedicated to collagen synthesis ([5]; 1, 10, 100 μg/ml, harvested day 4 and day 7, vs control cells, p<0.05 ANOVA)	total collagen synthesis per flask ([5]; treated as in example 6, FIG. 9 (2a))	overall protein synthesis per flask ([5]; treated as in example 6, FIG. 9 (2b))	inhibition of MNC proliferation with SEB as stimulus [6]	proliferation of MNC as response to different stimulants [6]	IC50 ([6]; Homo sapiens, PHA at 1 μg/ml, printed 'at the concentration of 5 μg/ml', read-out: IC50, inhibition of MNC proliferation in response to PHA)
CCCCCCCC(CC(=O)O)OC(=O)CC(CCCCCCC)OC1OC(C)C(O)C(O)C1OC1OC(C)C(O)C(O)C1O (stereo not shown) [BAC-3]	almost healed with only a slight erythema present	81%	15%	32%	about 32%	did not change its structure	significantly reduced	decreases synthesis of collagen	increase in overall synthesis	almost no inhibition	inhibited proliferation	35 µg/mL (≈ 53.8 µM)
C=C1/C(=C\C=C2/CCC[C@]3(C)[C@@H]([C@H](C)/C=C/[C@@H](O)C4CC4)CC[C@@H]23)C[C@@H](O)C[C@@H]1O [calcipotriene, reference compound]	almost healed with only a slight erythema present	–	–	–	–	–	–	–	–	–	–	–
